The NIST ThermoML archive (doi:10.1016/j.tca.2017.09.003)
± gives the expanded uncertainty stated by the source.

Conditions: Crystal; DTA

Normal melting temperature: 169.00 ± 2 °C
SMILES: Cc1oncc1C(=O)Nc1ccc(C(F)(F)F)cc1
